Source: the CheMixHub ionic liquid set

Experiment: xn = mol fraction of the nth substance listed

CCCCCC[n+]1ccn(C)c1.O=[N+]([O-])c1cn[n-]c1 + CCCCCCCC[P+](CC)(CC)CC.O=S(=O)([N-]S(=O)(=O)C(F)(F)F)C(F)(F)F
Conditions	viscosity [mPa·s]
288.15 K, 100 kPa, x2 = 0.1	770

CN1CCN(C)C1=O + CCCCCCCCn1cc[n+](C)c1.[Cl-]
100 kPa
Conditions	viscosity [mPa·s]
288.15 K, x2 = 0.3018	87.7
288.15 K, x2 = 0.4964	614
293.15 K, x2 = 0.3991	158.4
303.15 K, x2 = 0.2056	16.57
303.15 K, x2 = 0.4964	230
308.15 K, x2 = 0.7994	1104
313.15 K, x2 = 0.4964	129.8
313.15 K, x2 = 0.7994	774
318.15 K, x2 = 0.4964	100.2
323.15 K, x2 = 0.4964	79.4
328.15 K, x2 = 0.105	3.05
328.15 K, x2 = 0.3991	31.3
333.15 K, x2 = 0.7007	148

CCCCCO + CCCCCC[n+]1ccn(C)c1.[Cl-]
Conditions	viscosity [mPa·s]
303.15 K, 101 kPa, x1 = 1	3.03

CN1CCN(C)C1=O + CCCCCC[n+]1ccn(C)c1.[Cl-]
100 kPa
Conditions	viscosity [mPa·s]
288.15 K, x2 = 0	2.368
288.15 K, x2 = 0.1007	6.33
303.15 K, x2 = 0.1999	9.99
308.15 K, x2 = 0	1.616
308.15 K, x2 = 0.1999	8.56
308.15 K, x2 = 0.3856	44.3
318.15 K, x2 = 0.6969	182
323.15 K, x2 = 0.1007	2.8
323.15 K, x2 = 0.2985	12.78
323.15 K, x2 = 0.4985	45.7
328.15 K, x2 = 0	1.195
333.15 K, x2 = 0.2985	9.67

CCCCCCCC[N+]1(C)CCCC1.O=S(=O)([N-]S(=O)(=O)C(F)(F)F)C(F)(F)F + CCCCOC(C)=O
298.15 K, 100 kPa
Conditions	electrical conductivity [S/m]	viscosity [mPa·s]
x2 = 0.2414	0.145	–
x2 = 0.2589	–	51.3
x2 = 0.6824	0.353	–
x2 = 0.7923	0.355	–
x2 = 0.8427	0.326	–

O=S(=O)([N-]S(=O)(=O)C(F)(F)F)C(F)(F)F.[Li+] + CCCC[N+]1(C)CCCC1.O=S(=O)([N-]S(=O)(=O)C(F)(F)F)C(F)(F)F
100 kPa, x1 = 0.24
Conditions	electrical conductivity [S/m]
277.9 K	0.007
283.4 K	0.016
298 K	0.062
346.4 K	0.429

O=S(=O)([N-]S(=O)(=O)C(F)(F)F)C(F)(F)F.[Li+] + CCCC[N+]1(C)CCCC1.O=S(=O)([N-]S(=O)(=O)C(F)(F)F)C(F)(F)F + O
viscosity [mPa·s], 100 kPa
Conditions	293.15 K	298.15 K	303.15 K	313.15 K	323.15 K	333.15 K	343.15 K	353.15 K	363.15 K
x1 = 0.2745, x2 = 0.2745	117	85.1	66.1	43	29.5	20.8	15.8	11.9	9.38
x1 = 0.3106, x2 = 0.2745	144	110	85.8	52.2	34.6	24.4	17.9	13.6	10.6
x1 = 0.3509, x2 = 0.2745	242	179	135	82.5	49.1	33.5	23.9	17.7	13.6
x1 = 0.3868, x2 = 0.2745	437	334	246	141	87.5	52.3	35.9	25.8	19.3
x1 = 0.4308, x2 = 0.2745	599	421	304	171	104	62.1	42	29.9	21.5

O=C(O)CC(O)(CC(=O)O)C(=O)O + CCCC[N+](CCCC)(CCCC)CCCC.[Cl-] + O
100 kPa, x2 = 0.1428, x1 = 0.1428
Conditions	electrical conductivity [S/m]	viscosity [mPa·s]
293.15 K	0.0384	620
303.15 K	0.0639	380
313.15 K	0.103	245
323.15 K	0.161	161
333.15 K	0.245	108

NC(=O)C[C@H](N)C(=O)O + CCCC[N+](CCCC)(CCCC)Cc1ccccc1.[Cl-] + O
electrical conductivity [S/m], 100 kPa, frequency 0.001 MHz
Conditions	293.15 K	298.15 K	303.15 K	308.15 K	313.15 K
x1 = 0.0001802, x2 = 1.802e-05	0.0457	0.0482	0.0503	0.052	0.0553
x1 = 0.0001803, x2 = 5.405e-05	0.0516	0.0545	0.0572	0.0607	0.0639
x1 = 0.0001804, x2 = 9.008e-05	0.0589	0.066	0.0748	0.0813	0.0899
x1 = 0.0004504, x2 = 1.801e-05	0.0517	0.0574	0.059	0.0615	0.0657
x1 = 0.0004507, x2 = 5.403e-05	0.0603	0.0634	0.0663	0.0714	0.0753
x1 = 0.000451, x2 = 9.005e-05	0.0728	0.0771	0.0832	0.0889	0.0937
x1 = 0.0007205, x2 = 1.801e-05	0.057	0.0653	0.0683	0.0709	0.0773
x1 = 0.0007209, x2 = 5.402e-05	0.0678	0.072	0.0765	0.0809	0.0884
x1 = 0.0007213, x2 = 9.003e-05	0.0805	0.087	0.0917	0.0967	0.104
x1 = 0.0009904, x2 = 1.8e-05	0.0635	0.0749	0.0776	0.0796	0.0859
x1 = 0.000991, x2 = 5.4e-05	0.0716	0.0812	0.0854	0.0913	0.0954
x1 = 0.0009916, x2 = 9e-05	0.0886	0.0965	0.102	0.104	0.111
x1 = 0.00126, x2 = 1.8e-05	0.0698	0.0826	0.0859	0.0888	0.0951
x1 = 0.001261, x2 = 5.399e-05	0.0783	0.0903	0.0935	0.0999	0.113
x1 = 0.001262, x2 = 8.998e-05	0.102	0.105	0.108	0.112	0.127
x1 = 0.00153, x2 = 1.799e-05	0.086	0.092	0.0943	0.0983	0.11
x1 = 0.001531, x2 = 5.397e-05	0.0934	0.0997	0.105	0.108	0.115
x1 = 0.001532, x2 = 8.995e-05	0.107	0.111	0.116	0.121	0.138

viscosity [mPa·s], 100 kPa
Conditions	293.15 K	298.15 K	303.15 K	308.15 K	313.15 K
x1 = 0.0001802, x2 = 1.802e-05	0.959	0.919	0.882	–	–
x1 = 0.0001803, x2 = 5.405e-05	0.967	0.926	0.885	–	–
x1 = 0.0001804, x2 = 9.008e-05	0.978	0.935	0.898	–	–
x1 = 0.0004504, x2 = 1.801e-05	0.965	0.925	0.888	0.851	0.798
x1 = 0.0004507, x2 = 5.403e-05	0.974	0.932	0.892	0.858	0.802
x1 = 0.000451, x2 = 9.005e-05	0.985	0.941	0.904	0.862	0.81
x1 = 0.0007205, x2 = 1.801e-05	0.97	0.931	0.894	0.857	0.804
x1 = 0.0007209, x2 = 5.402e-05	0.98	0.938	0.898	0.864	0.809
x1 = 0.0007213, x2 = 9.003e-05	0.992	0.947	0.91	0.868	0.817
x1 = 0.0009904, x2 = 1.8e-05	0.975	0.936	0.899	0.863	0.81
x1 = 0.000991, x2 = 5.4e-05	0.985	0.943	0.904	0.87	0.815
x1 = 0.0009916, x2 = 9e-05	0.997	0.952	0.916	0.874	0.825
x1 = 0.00126, x2 = 1.8e-05	0.98	0.941	0.905	0.869	0.817
x1 = 0.001261, x2 = 5.399e-05	0.99	0.948	0.909	0.877	0.822
x1 = 0.001262, x2 = 8.998e-05	1.003	0.958	0.922	0.88	0.831
x1 = 0.00153, x2 = 1.799e-05	0.984	0.946	0.91	0.875	0.823
x1 = 0.001531, x2 = 5.397e-05	0.995	0.954	0.915	0.883	0.829
x1 = 0.001532, x2 = 8.995e-05	1.008	0.964	0.929	0.887	0.839

CCC(=O)CC + CCCC[n+]1ccn(C)c1.F[P-](F)(F)(F)(F)F
298.15 K, 101.3 kPa
Conditions	viscosity [mPa·s]
x1 = 0.1927	81.4
x1 = 0.3014	42.7
x1 = 0.5009	13.36
x1 = 0.652	5.36

CCCCCO + CCCC[n+]1ccn(C)c1.N#C[S-]
Conditions	viscosity [mPa·s]
298.15 K, 101 kPa, x1 = 1	3.37

CCCCCO + CCCC[n+]1ccn(C)c1.O=S(=O)([N-]S(=O)(=O)C(F)(F)F)C(F)(F)F
298 K, 100 kPa
Conditions	electrical conductivity [S/m]	viscosity [mPa·s]
x2 = 0	–	3.486
x2 = 0.5988	–	20.14
x2 = 0.6	0.5605	–
x2 = 0.6994	–	25.03
x2 = 0.7	0.526	–
x2 = 0.8	0.487	–
x2 = 0.8014	–	31.59
x2 = 0.9	0.4445	–
x2 = 0.9023	–	39

OCCO + CCCC[n+]1ccn(C)c1.O=S(=O)([N-]S(=O)(=O)C(F)(F)F)C(F)(F)F
100 kPa
Conditions	viscosity [mPa·s]
293.15 K, x2 = 0.2002	34.4
293.15 K, x2 = 0.4015	41.6
298.15 K, x2 = 0.2002	27.2
308.15 K, x2 = 0.2997	18.6
308.15 K, x2 = 0.7003	21.8
313.15 K, x2 = 0.2997	15.6
318.15 K, x2 = 0.2997	13.3
318.15 K, x2 = 0.7003	15.6
323.15 K, x2 = 0.2997	11.5
323.15 K, x2 = 0.7993	14.8
323.15 K, x2 = 0.9	17
328.15 K, x2 = 0.4015	10.4
328.15 K, x2 = 0.6007	11.3
328.15 K, x2 = 0.9	14.7
333.15 K, x2 = 0.2002	8.11
333.15 K, x2 = 0.7993	11.3
338.15 K, x2 = 0.7993	10

OCCO + CCCC[n+]1ccn(C)c1.O=S(=O)([O-])C(F)(F)F
Conditions	viscosity [mPa·s]
303.15 K, 100 kPa, x2 = 0	13.49
